According to publication PMC5874590, “The Occurrence of Flavonoids and Related Compounds in Cedrus brevifolia A. Henry ex Elwes & A. Henry Needles. Inhibitory Potencies on Lipoxygenase, Linoleic Acid Lipid Peroxidation and Antioxidant Activity” (Plants, 2017):

Assays:
[1] = molecular target: T1, soybean lipoxygenase (LOX) (Glycine max, UniProt P08170); experiment: UV absorbance at […] nm; assay type: biochemical; conditions: 0.1 mM compound; sodium linoleate; room temperature
T1 construct: gene LOX1.1; commercial native soybean enzyme (Sigma), catalogue number or type not given; 13-hydroperoxylinoleate product points to LOX-1
T1 sequence (P08170 1-839): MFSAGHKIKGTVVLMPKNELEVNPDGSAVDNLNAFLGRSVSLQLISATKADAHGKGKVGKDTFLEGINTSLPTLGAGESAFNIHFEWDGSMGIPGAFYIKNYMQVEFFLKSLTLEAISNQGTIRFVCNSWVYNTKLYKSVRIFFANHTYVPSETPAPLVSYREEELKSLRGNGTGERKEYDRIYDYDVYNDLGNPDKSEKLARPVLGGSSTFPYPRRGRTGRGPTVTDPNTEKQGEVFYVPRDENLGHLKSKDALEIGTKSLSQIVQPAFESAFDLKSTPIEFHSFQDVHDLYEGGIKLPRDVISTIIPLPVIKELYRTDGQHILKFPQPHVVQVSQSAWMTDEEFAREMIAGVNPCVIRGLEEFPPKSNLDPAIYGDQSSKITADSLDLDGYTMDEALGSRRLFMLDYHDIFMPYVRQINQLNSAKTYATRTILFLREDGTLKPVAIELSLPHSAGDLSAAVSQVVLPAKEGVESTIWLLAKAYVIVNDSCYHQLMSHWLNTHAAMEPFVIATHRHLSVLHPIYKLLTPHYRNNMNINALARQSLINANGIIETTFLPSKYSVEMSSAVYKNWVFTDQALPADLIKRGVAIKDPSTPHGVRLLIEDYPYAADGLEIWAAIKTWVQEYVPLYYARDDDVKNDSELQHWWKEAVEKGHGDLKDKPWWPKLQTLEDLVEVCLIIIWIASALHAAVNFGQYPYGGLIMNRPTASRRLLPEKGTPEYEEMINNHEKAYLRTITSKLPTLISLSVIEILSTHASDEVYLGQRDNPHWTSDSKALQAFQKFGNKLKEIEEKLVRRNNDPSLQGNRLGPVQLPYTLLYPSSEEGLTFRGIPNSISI

[2] = molecular target: T1, soybean lipoxygenase (LOX); experiment: UV absorbance at […] nm; assay type: biochemical; conditions: room temperature; product 13-hydroperoxylinoleate

% LOX ± SD Inhbt @ (0.1 mM) [1] [%]	Structure (SMILES)	UV absorbance at 234 nm [2]
46 ± 1.0	C[C@@H]1O[C@@H](OC[C@H]2O[C@@H](Oc3c(-c4ccc(O)cc4)oc4cc(O)cc(O)c4c3=O)[C@H](O)[C@@H](O)[C@@H]2O)[C@H](O)[C@H](O)[C@H]1O [compound 17, kaempferol-3-O-β-rutinoside]	–
8 ± 0.3	O=C(/C=C/c1ccc(O)cc1)OC[C@H]1O[C@@H](Oc2c(-c3ccc(O)cc3)oc3cc(O)cc(O)c3c2=O)[C@H](O)[C@@H](O)[C@@H]1O [compound 19, tiliroside]	–

Second part, the compound before the results:

Structure (SMILES)	% LOX ± SD Inhbt @ (0.1 mM) [1] [%]	UV absorbance at 234 nm [2]
O=C(O[C@@H]1O[C@H](CO)[C@@H](O)[C@H](O)[C@H]1O)c1ccccc1 [compound 5, benzoate glucoside]	29 ± 1.1	–
O=C(O)/C=C/c1ccc(O)cc1 [compound 13, p-coumaric acid]	18 ± 0.6	–
O=C(O)/C=C/c1ccc(O[C@@H]2O[C@H](CO)[C@@H](O)[C@H](O)[C@H]2O)cc1 [compound 14, 4-O-β-D-glucopyranyl trans-p-coumaric acid]	100 ± 2.5	–
CC1=CC(=O)CC(C)(C)[C@@]1(O)/C=C/C(C)=C\CO[C@@H]1O[C@H](CO)[C@@H](O)[C@H](O)[C@H]1O [compound 16, abscisic alcohol glucoside]	25±1.2	–
CCCCC/C=C\C/C=C\CCCCCCCC(=O)O [sodium linoleate]	–	The transformation of sodium linoleate to 13-hydroperoxylinoleate sodium was measured spectrophotometrically
